Results as given in patent publication US20200239587A1, “SENSITIZATION OF TUMORS TO THERAPIES THROUGH ENDOGLIN ANTAGONISM” (Cedars-Sinai Medical Center, priority 2016, published 2020).

Legend:
[1] = system: CW22Rv1 cells; assay: Seahorse-XF mito-stress test; type: cell-based, human
Protocol: Cells were analyzed for mito-stress test by Seahorse-XF 168 hours following 4 Gy of radiation in the presence of IgG or TRC105. FIG. 26A) Basal respiration, non-mito respiration, proton leak, spare respiratory capacity, FIG. 26B) extracellular acidification rate (ECAR) and FIG. 26C) mitochondrial dependent ATP production were quantitated using Wave 2.3.0 analysis. Data are reported as mean+/−S.D. of a representative experiment (n=5) of 3 independent experiments. FIGS. 26A-26C, the first/left column depicts 0Gy+IgG, the second column depicts 0Gy+TRC105, the third column depicts 4Gy+IgG and the last/right column depicts 4Gy+TRC105. FIG. 26D) 22Rv1 cells treated with IgG, TRC105 or nicotinamide were irradiated (4 Gy). Total cellular ATP was measured 0, 24, 72, 120, and 168 hours post radiation. Within each group, the left column is IgG, middle column is TRC105 and the right column is nicotinamide. Data are reported as mean+/−S.D. of 3 independent experiments. (***p<0.001, ****p<0.0001).

[2] = system: tissue recombination orthotopic xenografts of primary human CAF and Rv1; assay: Tissue recombination orthotopic xenografts of primary human CAF and Rv1
Text: FIG. 13A) Mice were orthotopically grafted with tissue recombinants of CW22Rv1 and CAF. […] FIG. 13B) H&E staining was followed by immune-localization for phosphorylated-histoneH3 (PH-H3), TUNEL, and chromogranin A (ChromA). Scale bar represents 32 μm. The mitotic (PH-H3) and cell death (TUNEL) indexes were plotted. n>5, error bars are mean+/−SD and *p<0.05, **p<0.01, ***p<0.001, compared to control unless otherwise indicated.
Male beige/SCID mice (Envigo), 6-8 or 10-12 weeks old, were used for subrenal capsule or prostatic orthotopic grafting, respectively, as previously described (Banerjee et al., 2014, Oncogene 33, 4924-4931; Hayward et al., 2001, Cancer Res 61, 8135-8142). In accordance with institutional animal care and use committee approval, 2×10^5 CW22Rv1 cells and 6×10^5 stromal cells were suspended in 20 μL type I collagen to be grafted into the subrenal capsule of mice castrated after seven days and sacrificed 21 days after castration. […] Tumor volume was calculated using the modified ellipsoid formula volume3=π/6×(width)2×length.
Paraffin embedded tissues were sectioned (5 μm thick) were subjected to hematoxylin and eosin (H&E) staining and immunohistochemistry as previously reported (Placencio et al., 2008, Cancer research 68, 4709-4718). […] Anti-phosphorylated histone H3 (06-570, Millipore), anti-CD105 (NCL-CD105, Leica Microsystems), anti-Ki67 (ab16667, Abcam), and anti-chromogranin A (sc-13090, Santa Cruz Biotechnology), anti-SFRP1 (601-401-475S, Rockland Immunochemicals), and anti-survivin (2808, Cell Signaling) antibodies were incubated at 4° C. overnight. Secondary antibody development was performed with Dako Cytomation mouse or rabbit kits and visualized using 3,3′-diaminobenzidine tetrahydrochloride substrate. TUNEL staining was performed per manufacturer's protocol (S7100, Millipore). Slides were scanned with a Leica Biosystems Aperio AT. Up to five fields per tissue were quantitated with Fiji (ImageJ) using a custom written macro. Mitotic and death index were quantitated by taking the total number of positively-stained nuclei divided by the total number of nuclei.

Substance: TRC105: partially humanized monoclonal antibody that blocks BMP signaling; human-specific CD105 (endoglin) neutralizing antibody from Tracon Pharmaceuticals
- mitochondrial dependent ATP production ([1]; TRC105 alone): depletion of mitochondrial dependent ATP production
- spare respiratory capacity ([1]; TRC105 plus 4 Gy vs radiation alone): further decrease in spare respiratory capacity
- basal oxidative phosphorylation ([1]; TRC105 plus 4 Gy vs radiation alone, 168 hours): decrease in basal oxidative phosphorylation
- glycolysis (extracellular acidification) ([1]; addition of TRC105 in the context of radiation): blocked glycolysis
- mitochondrial dependent ATP production ([1]; combination of radiation and TRC105 vs either agent alone): further depletion
- NED, chromogranin A staining ([2]; TRC105 added to ATT): reduced
- proliferation or cell death ([2]; TRC105 alone compared to control): little change in either proliferation or cell death
- tumor size ([2]; TRC105 alone, p<0.05): smaller than vehicle
- tumor volume ([2]; TRC105 in enzalutamide treated castrated mice vs vehicle or enzalutamide (p<0.01 and <0.05)): significant reduction in tumor volume
- tumor size ([2]; TRC105 treatment in castrated mice): reduced tumor size
- proliferation (phosphorylated-histone H3) ([2]; castration, enzalutamide and TRC105 vs control or castrated enzalutamide group (p<0.05 and <0.001)): substantially reduced proliferation
- TUNEL staining ([2]; castration, enzalutamide and TRC105 vs control or enzalutamide (p<0.05)): increased TUNEL staining
- efficacy of combination of TRC105 with ADT ([2]; prostate cancer models, in vivo): superior to either one alone
